In ChEMBL document CHEMBL1687697 (ACS Med Chem Lett, 2010):
The source made the active and inactive calls. The rule behind the calls is not given here.

Key:
[1] = tested on: DU-145; assay: Cell cycle arrest in human DU145 cells assessed as accumulation in S phase at 0.5 uM after 24 hrs by FACS flow cytometry; assay type: functional
[2] = tested on: DU-145; assay: Cell cycle arrest in human DU145 cells assessed as accumulation in G2/M phase at 0.5 uM after 24 hrs by FACS flow cytometry; assay type: functional
[3] = tested on: DU-145; assay: Cell cycle arrest in human DU145 cells assessed as accumulation in G0/G1 phase at 1 uM after 24 hrs by FACS flow cytometry; assay type: functional
[4] = tested on: DU-145; assay: Cell cycle arrest in human DU145 cells assessed as accumulation in S phase at 1 uM after 24 hrs by FACS flow cytometry; assay type: functional
[5] = tested on: DU-145; assay: Cell cycle arrest in human DU145 cells assessed as accumulation in G2/M phase at 1 uM after 24 hrs by FACS flow cytometry; assay type: functional
[6] = tested on: DU-145; assay: Induction of apoptosis in human DU145 cells assessed as viable cells at 1 uM after 72 hrs by AnnexinV-propidium iodide based FACS flow cytometry; assay type: functional; conditions: DU-145, 72 h, read-out: Activity
[7] = tested on: DU-145; assay: Induction of apoptosis in human DU145 cells assessed as early apoptotic cells at 1 uM after 72 hrs by AnnexinV-propidium iodide based FACS flow cytometry; assay type: functional
[8] = tested on: DU-145; assay: Induction of apoptosis in human DU145 cells assessed as late apoptotic cells at 1 uM after 72 hrs by AnnexinV-propidium iodide based FACS flow cytometry; assay type: functional
[9] = tested on: DU-145; assay: Induction of apoptosis in human DU145 cells assessed as necrotic cells at 1 uM after 72 hrs by AnnexinV-propidium iodide based FACS flow cytometry; assay type: functional
[10] = tested on: DU-145; assay: Induction of apoptosis in human DU145 cells assessed as viable cells at 5 uM after 72 hrs by AnnexinV-propidium iodide based FACS flow cytometry; assay type: functional; conditions: DU-145, 72 h, read-out: Activity
[11] = tested on: DU-145; assay: Induction of apoptosis in human DU145 cells assessed as early apoptotic cells at 5 uM after 72 hrs by AnnexinV-propidium iodide based FACS flow cytometry; assay type: functional
[12] = tested on: DU-145; assay: Induction of apoptosis in human DU145 cells assessed as late apoptotic cells at 5 uM after 72 hrs by AnnexinV-propidium iodide based FACS flow cytometry; assay type: functional
[13] = tested on: DU-145; assay: Induction of apoptosis in human DU145 cells assessed as necrotic cells at 5 uM after 72 hrs by AnnexinV-propidium iodide based FACS flow cytometry; assay type: functional
[14] = tested on: DU-145; assay: Induction of apoptosis in human DU145 cells assessed as viable cells at 10 uM after 72 hrs by AnnexinV-propidium iodide based FACS flow cytometry; assay type: functional; conditions: DU-145, 72 h, read-out: Activity
[15] = tested on: DU-145; assay: Induction of apoptosis in human DU145 cells assessed as early apoptotic cells at 10 uM after 72 hrs by AnnexinV-propidium iodide based FACS flow cytometry; assay type: functional
[16] = tested on: DU-145; assay: Induction of apoptosis in human DU145 cells assessed as late apoptotic cells at 10 uM after 72 hrs by AnnexinV-propidium iodide based FACS flow cytometry; assay type: functional
[17] = tested on: DU-145; assay: Induction of apoptosis in human DU145 cells assessed as necrotic cells at 10 uM after 72 hrs by AnnexinV-propidium iodide based FACS flow cytometry; assay type: functional
[18] = target: Tyrosine-protein kinase ABL1 (Homo sapiens, UniProt P00519); assay: Inhibition of Abl1 after 60 mins by radiometric assay
[19] = target: RAC-alpha serine/threonine-protein kinase (Homo sapiens, UniProt P31749); assay: Inhibition of Akt1 after 60 mins by radiometric assay
Sequence of RAC-alpha serine/threonine-protein kinase (P31749 whole entry): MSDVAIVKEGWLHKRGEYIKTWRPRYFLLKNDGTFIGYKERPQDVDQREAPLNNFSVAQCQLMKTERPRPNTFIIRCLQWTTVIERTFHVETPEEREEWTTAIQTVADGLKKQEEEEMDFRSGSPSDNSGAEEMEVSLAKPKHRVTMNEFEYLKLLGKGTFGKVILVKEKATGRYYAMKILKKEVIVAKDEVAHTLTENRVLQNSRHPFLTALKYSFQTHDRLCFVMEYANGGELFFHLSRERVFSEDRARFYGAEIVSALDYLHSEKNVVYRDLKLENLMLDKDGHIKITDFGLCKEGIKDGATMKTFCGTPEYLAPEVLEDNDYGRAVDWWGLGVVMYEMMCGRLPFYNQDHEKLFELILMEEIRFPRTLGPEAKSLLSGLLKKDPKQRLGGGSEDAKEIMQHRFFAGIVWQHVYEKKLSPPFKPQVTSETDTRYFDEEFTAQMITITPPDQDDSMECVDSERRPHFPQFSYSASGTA

[20] = target: Aurora kinase A (Homo sapiens, UniProt O14965); assay: Inhibition of Aurora-A after 60 mins by radiometric assay
Sequence of Aurora kinase A (O14965 whole entry): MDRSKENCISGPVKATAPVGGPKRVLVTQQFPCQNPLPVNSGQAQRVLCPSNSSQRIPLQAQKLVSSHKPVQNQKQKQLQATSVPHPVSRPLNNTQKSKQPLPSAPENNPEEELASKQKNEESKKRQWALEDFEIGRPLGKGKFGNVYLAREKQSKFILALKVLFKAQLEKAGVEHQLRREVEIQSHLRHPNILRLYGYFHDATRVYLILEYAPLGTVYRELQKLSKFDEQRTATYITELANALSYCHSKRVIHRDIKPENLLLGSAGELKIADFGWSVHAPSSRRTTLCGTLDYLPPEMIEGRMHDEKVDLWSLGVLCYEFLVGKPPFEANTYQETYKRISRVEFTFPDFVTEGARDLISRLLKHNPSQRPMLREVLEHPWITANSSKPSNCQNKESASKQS

[21] = target: Serine/threonine-protein kinase B-raf (Homo sapiens, UniProt P15056); assay: Inhibition of B-Raf after 60 mins by radiometric assay
[22] = target: Serine/threonine-protein kinase B-raf (Homo sapiens, UniProt P15056, V600E); assay: Inhibition of B-Raf V600E mutant after 60 mins by radiometric assay
Sequence of Serine/threonine-protein kinase B-raf (Homo sapiens, UniProt P15056, V600E) (P15056 2-766 V600E limits assumed): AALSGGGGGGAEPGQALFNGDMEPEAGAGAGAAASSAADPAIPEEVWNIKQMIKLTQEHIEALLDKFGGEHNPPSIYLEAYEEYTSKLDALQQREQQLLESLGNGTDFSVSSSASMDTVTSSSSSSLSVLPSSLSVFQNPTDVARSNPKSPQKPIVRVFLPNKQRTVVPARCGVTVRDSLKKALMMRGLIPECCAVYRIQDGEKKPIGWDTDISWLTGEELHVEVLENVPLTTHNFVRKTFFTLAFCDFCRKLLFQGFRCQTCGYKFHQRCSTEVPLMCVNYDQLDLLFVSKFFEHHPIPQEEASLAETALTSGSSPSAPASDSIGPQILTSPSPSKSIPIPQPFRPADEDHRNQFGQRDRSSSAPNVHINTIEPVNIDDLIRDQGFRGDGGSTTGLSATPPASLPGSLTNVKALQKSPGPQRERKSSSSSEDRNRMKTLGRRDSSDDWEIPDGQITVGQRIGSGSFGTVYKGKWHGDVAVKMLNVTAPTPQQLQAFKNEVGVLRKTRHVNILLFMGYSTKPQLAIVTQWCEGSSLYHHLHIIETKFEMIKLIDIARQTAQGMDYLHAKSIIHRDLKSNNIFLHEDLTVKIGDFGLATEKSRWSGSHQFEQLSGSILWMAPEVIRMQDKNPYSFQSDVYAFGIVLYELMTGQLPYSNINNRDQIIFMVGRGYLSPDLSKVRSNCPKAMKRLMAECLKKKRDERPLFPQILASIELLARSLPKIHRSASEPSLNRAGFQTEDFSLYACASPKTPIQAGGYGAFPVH

[23] = target: Mitogen-activated protein kinase 1 (Homo sapiens, UniProt P28482); assay: Inhibition of Erk2 after 60 mins by radiometric assay
Sequence of Mitogen-activated protein kinase 1 (P28482 whole entry): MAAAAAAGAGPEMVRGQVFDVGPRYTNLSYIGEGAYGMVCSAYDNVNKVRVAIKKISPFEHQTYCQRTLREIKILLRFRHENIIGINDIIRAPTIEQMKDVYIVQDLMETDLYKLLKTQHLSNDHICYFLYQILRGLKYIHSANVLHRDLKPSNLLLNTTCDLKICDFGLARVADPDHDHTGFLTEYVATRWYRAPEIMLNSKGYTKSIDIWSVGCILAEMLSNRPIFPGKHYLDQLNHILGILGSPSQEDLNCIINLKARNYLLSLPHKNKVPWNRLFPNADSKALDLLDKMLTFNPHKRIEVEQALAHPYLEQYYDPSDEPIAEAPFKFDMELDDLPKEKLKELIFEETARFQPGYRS

[24] = target: Fibroblast growth factor receptor 1 (Homo sapiens, UniProt P11362); assay: Inhibition of FGFR-1 after 60 mins by radiometric assay
[25] = target: Glycogen synthase kinase-3 beta (Homo sapiens, UniProt P49841); assay: Inhibition of GSK3-beta after 60 mins by radiometric assay
[26] = target: Receptor-type tyrosine-protein kinase FLT3 (Homo sapiens, UniProt P36888); assay: Inhibition of Flt3 after 60 mins by radiometric assay
[27] = target: Mitogen-activated protein kinase 8 (Homo sapiens, UniProt P45983); assay: Inhibition of JNK1 after 60 mins by radiometric assay
Sequence of Mitogen-activated protein kinase 8 (P45983 whole entry): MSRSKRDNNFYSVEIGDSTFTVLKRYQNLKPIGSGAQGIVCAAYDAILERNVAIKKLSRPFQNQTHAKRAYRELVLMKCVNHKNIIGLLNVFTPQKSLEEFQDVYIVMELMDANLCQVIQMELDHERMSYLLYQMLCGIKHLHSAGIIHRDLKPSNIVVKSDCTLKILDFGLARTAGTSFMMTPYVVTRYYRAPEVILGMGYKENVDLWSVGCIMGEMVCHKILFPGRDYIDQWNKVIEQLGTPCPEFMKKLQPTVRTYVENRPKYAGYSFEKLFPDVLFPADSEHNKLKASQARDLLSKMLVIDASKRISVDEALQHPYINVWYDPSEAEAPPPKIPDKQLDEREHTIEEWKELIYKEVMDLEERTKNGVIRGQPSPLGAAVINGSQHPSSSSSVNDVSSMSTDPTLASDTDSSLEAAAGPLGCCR

[28] = target: Mast/stem cell growth factor receptor Kit (Homo sapiens, UniProt P10721); assay: Inhibition of KIT after 60 mins by radiometric assay
Sequence of Mast/stem cell growth factor receptor Kit (P10721 whole entry): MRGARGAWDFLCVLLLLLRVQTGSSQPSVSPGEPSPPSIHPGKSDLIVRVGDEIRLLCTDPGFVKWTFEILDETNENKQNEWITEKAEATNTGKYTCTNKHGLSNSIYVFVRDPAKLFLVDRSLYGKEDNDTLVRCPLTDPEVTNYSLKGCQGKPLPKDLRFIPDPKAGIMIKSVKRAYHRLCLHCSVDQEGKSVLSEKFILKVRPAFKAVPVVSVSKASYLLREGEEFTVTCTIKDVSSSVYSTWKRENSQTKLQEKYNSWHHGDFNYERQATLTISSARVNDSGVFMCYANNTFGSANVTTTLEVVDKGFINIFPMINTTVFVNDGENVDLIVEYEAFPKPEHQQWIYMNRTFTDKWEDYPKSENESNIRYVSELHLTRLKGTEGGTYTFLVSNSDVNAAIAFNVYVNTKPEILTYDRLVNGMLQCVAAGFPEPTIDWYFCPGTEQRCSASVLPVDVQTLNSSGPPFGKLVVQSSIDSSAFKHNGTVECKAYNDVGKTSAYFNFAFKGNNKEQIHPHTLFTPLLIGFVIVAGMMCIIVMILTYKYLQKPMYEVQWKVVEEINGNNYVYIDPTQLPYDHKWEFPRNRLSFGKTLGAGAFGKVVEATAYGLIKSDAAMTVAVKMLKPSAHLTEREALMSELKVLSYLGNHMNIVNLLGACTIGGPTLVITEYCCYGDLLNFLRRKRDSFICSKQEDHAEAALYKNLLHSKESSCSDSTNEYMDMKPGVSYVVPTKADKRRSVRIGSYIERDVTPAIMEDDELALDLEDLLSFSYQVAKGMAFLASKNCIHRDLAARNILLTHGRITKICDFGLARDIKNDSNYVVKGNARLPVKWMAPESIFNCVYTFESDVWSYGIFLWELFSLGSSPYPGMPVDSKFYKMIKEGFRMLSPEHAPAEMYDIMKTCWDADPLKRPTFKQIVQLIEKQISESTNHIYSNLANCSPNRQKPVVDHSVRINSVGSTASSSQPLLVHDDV

[29] = target: Tyrosine-protein kinase Lyn (Homo sapiens, UniProt P07948); assay: Inhibition of LYN after 60 mins by radiometric assay
Sequence of Tyrosine-protein kinase Lyn (P07948 whole entry): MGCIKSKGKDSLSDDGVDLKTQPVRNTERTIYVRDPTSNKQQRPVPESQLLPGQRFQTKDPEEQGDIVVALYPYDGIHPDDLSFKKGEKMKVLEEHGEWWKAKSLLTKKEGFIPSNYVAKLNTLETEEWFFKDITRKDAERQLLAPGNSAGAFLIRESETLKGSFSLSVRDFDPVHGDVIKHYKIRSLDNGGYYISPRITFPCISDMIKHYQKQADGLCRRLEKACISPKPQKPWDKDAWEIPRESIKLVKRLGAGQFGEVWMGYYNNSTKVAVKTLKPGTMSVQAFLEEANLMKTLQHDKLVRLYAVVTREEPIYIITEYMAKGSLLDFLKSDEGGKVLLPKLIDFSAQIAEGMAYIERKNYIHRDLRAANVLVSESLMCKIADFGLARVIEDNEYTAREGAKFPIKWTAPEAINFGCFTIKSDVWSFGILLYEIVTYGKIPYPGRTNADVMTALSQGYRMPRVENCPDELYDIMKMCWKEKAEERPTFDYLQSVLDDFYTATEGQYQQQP

[30] = Inhibition of MEK after 60 mins by radiometric assay
[31] = target: 3-phosphoinositide-dependent protein kinase 1 (Homo sapiens, UniProt O15530); assay: Inhibition of PDK1 after 60 mins by radiometric assay
[32] = target: Angiopoietin-1 receptor (Homo sapiens, UniProt Q02763); assay: Inhibition of TIE2 after 60 mins by radiometric assay
[33] = target: Protein kinase C alpha type (Homo sapiens, UniProt P17252); assay: Inhibition of PKC-alpha after 60 mins by radiometric assay
[34] = Inhibition of Raf Y340D/Y341D mutant after 60 mins by radiometric assay
[35] = target: Vascular endothelial growth factor receptor 2 (Homo sapiens, UniProt P35968); assay: Inhibition of VEGFR2 after 60 mins by radiometric assay
[36] = tested on: DU-145; assay: Decrease in STAT3 protein level in human DU145 cells after 24 hrs by Western blot analysis; assay type: functional, cell-based
[37] = target: Signal transducer and activator of transcription 3 (Homo sapiens) (UniProt P40763); assay: Inhibition of STAT3 phosphorylation at Tyr705 in human DU145 cells at 2 uM within 2 hrs by Western blot analysis; assay type: cell-based; conditions: DU-145
Sequence of Signal transducer and activator of transcription 3 (Homo sapiens) (P40763 whole entry): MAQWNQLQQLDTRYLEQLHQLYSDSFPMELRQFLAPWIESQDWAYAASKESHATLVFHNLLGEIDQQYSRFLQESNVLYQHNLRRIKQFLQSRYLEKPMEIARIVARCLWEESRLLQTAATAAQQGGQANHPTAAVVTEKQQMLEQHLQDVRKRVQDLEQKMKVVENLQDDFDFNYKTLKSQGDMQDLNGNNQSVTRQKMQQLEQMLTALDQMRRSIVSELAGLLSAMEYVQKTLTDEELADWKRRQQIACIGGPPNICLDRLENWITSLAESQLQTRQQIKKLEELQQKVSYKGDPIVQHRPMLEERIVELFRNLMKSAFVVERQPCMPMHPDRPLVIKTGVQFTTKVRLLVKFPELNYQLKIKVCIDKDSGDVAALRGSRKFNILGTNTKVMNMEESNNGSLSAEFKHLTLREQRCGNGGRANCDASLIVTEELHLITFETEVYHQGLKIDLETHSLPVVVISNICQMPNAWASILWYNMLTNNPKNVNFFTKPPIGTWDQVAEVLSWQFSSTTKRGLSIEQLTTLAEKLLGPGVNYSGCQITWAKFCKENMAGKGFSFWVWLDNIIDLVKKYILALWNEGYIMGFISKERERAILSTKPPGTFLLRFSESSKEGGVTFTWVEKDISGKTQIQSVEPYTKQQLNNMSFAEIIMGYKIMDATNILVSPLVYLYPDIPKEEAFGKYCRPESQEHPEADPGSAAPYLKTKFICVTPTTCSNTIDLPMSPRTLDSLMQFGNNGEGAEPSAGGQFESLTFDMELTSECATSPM

**Q.** For `O=C(Nc1ccc([N+](=O)[O-])cc1Cl)c1cc(Cl)ccc1O` [NICLOSAMIDE], which Activity [1] is on record?
**A.** The Activity was 32.84%.

**Q.** What about the Activity [2] of the same compound?
**A.** Its Activity is 9.76%.

**Q.** And the Activity [3]?
**A.** Its Activity is 75.35%.

**Q.** What about the Activity [4] of the same compound?
**A.** The Activity was 16.82%.

**Q.** And the Activity [5]?
**A.** Its Activity is 7.83%.

**Q.** And the viability at 1 µM [6]?
**A.** The viability at 1 µM was 83.9%.

**Q.** What about the Activity [7] of the same compound?
**A.** The Activity was 4.84%.

**Q.** And the Activity [8]?
**A.** The Activity was 8.16%.

**Q.** And the Activity [9]?
**A.** Its Activity is 2.63%.

**Q.** And the viability at 5 µM [10]?
**A.** The viability at 5 µM was 61.9%.

**Q.** And the Activity [11]?
**A.** Its Activity is 10.44%.

**Q.** And the Activity [12]?
**A.** Its Activity is 25.41%.

**Q.** And the Activity [13]?
**A.** The Activity was 2.27%.

**Q.** And the viability at 10 µM [14]?
**A.** Its viability at 10 µM is 43.4%.

**Q.** What about the Activity [15] of the same compound?
**A.** The Activity was 15.42%.

**Q.** What about the Activity [16] of the same compound?
**A.** The Activity was 38.72%.

**Q.** And the Activity [17]?
**A.** The Activity was 2.43%.

**Q.** And the IC50 [18]?
**A.** The IC50 was greater than 100 µM.

**Q.** And the IC50 [19]?
**A.** Its IC50 is 59.4 µM.

**Q.** And the IC50 [20]?
**A.** Its IC50 is 54.1 µM.

**Q.** What about the IC50 [21] of the same compound?
**A.** The IC50 was greater than 100 µM.

**Q.** What about the IC50 [22] of the same compound?
**A.** The IC50 was greater than 100 µM.

**Q.** What about the IC50 [23] of the same compound?
**A.** Its IC50 is greater than 100 µM.

**Q.** And the IC50 [24]?
**A.** Its IC50 is 13.1 µM.

**Q.** What about the IC50 [25] of the same compound?
**A.** The IC50 was 77.5 µM.

**Q.** What about the IC50 [26] of the same compound?
**A.** Its IC50 is greater than 100 µM.

**Q.** What about the IC50 [27] of the same compound?
**A.** Its IC50 is greater than 100 µM.

**Q.** And the IC50 [28]?
**A.** The IC50 was 27.8 µM.

**Q.** And the IC50 [29]?
**A.** Its IC50 is 23.8 µM.

**Q.** And the IC50 [30]?
**A.** Its IC50 is greater than 100 µM.

**Q.** And the IC50 [31]?
**A.** The IC50 was 83.9 µM.

**Q.** And the IC50 [32]?
**A.** The IC50 was 67.8 µM.

**Q.** And the IC50 [33]?
**A.** Its IC50 is greater than 100 µM.

**Q.** What about the IC50 [34] of the same compound?
**A.** Its IC50 is greater than 100 µM.

**Q.** And the IC50 [35]?
**A.** The IC50 was 23.1 µM.

**Q.** And the Activity [36]?
**A.** Its Activity is “inactive”.

**Q.** And the inhibition [37]?
**A.** The inhibition was “Active”.
